What all share (format): cell-based
For test [1], the system named is esophagus cancer cell strain CE-81. Description: survival rate of esophagus cancer cell strain CE-81 (CTAQ cell activity, OD 492 nm). On the set-up: dose or concentration left out as unconfirmed. Conditions: treated 96 hours. The procedure: Regarding to the cell strain culture in following embodiments, the culture solution of Ham's F 12/DMEM (v/v 1:1) including 10% (v/v) fetus cattle serum (FCS) and antibiotics (100 μg/ml streptomycin, 100 IU/ml penicillin, 1 μg/ml amphotericin) is used for cultivating all cell strains at 37° C., 5% CO2. When the cell grows to 80% full, the cell is washed down by Trypsin-EDTA to do the sub-culture. For the sub-culture, the cell is rinsed by HBSS first, washed down by Trypsin-EDTA, and centrifugated at 1000 rpm, 25° C. for 10 minutes. Sequentially, the cell is diluted by four times culture solution to be continuously cultivated. In addition, the sub-culture is done once per week. […]
The esophagus cancer cell strain, CE-81, is washed down by Trypsin-EDTA, centrifugated, and diluted to a cell concentration of 10^6 cells/ml by FCS-free culture solution. […] After different treating time, the cell strain CE-81 is added […] cell activity detecting agent CTAQTM, and the cell activity is detected at OD 492 nm by multiple frequency scanner. […] Thus, the survival rate of cell (%) is obtained via comparing the determined value difference between after and before adding CTAQ with the standard curve by intercalation.

For test [2], the system named is cervical cancer cell strain CC-135. The experiment in a line: survival rate of cervical cancer cell strain CC-135 (CTAQ cell activity). The arrangement: dose or concentration left out as unconfirmed. Conditions: 10 p, 1.0 p or 0.1 p cis-Platine, treated 24 hours.
Test [3] relates to ovary cancer cell strain OC-117. Description: survival rate of ovary cancer cell strain OC-117 (CTAQ cell activity). Conditions: 10 p (20 mg/ml) cis-Platine, treated over 48 hours.
Test [4] relates to bladder cancer cell strain Bladder-3. Description: survival rate of bladder cancer cell strain Bladder-3 (CTAQ cell activity). The arrangement: dose or concentration left out as unconfirmed. Conditions: treated over 48 hours.

On to `[NH2][Pt]([NH2])([Cl])[Cl]` [cis-Platine], for which the “survival rate of CE-81” value in test [1] is “about 60%”. Moreover, the “survival rate of CC-135” value in test [2] is given as “about 50%”. In addition, the “survival rate of OC-117” value in test [3] is “below 20%”. Moreover, the “inhibition effect on Bladder-3 (in words)” value in test [4] is given as “significant inhibition effect”.

For the origin of these results see US20020114854A1, “Chinese herb medicine composition for cancer prophylaxis and therapy” (priority 2001, published 2002).
